Measured values: US10222370B2, “Screening assay for choice of prebiotic to prevent/treat gastrointestinal and systemic diseases” (Rush University Medical Center, priority 2014, dated 2019)
Entries after “also recorded” stand apart in the source; their conditions may differ.

Experiments:
Type in all cases: cell-based, human
T84/PBMC co-cultures = assay: Cytokine production in T84/PBMC co-cultures with apical TLR ligands (ELISA); settings: for IL-10/IL-13 ratio / IFN-γ/IL-13 ratio / IL-10/IFN-γ: T84/PBMC co-cultures; for IL-10/IL-13 ratio / IFN-γ/IL-13 ratio: vs medium; for IFN-γ/IL-13 ratio / IL-6 / IFN-γ / IL-8 / IL-10 / IL-13 / TNF-α: 24 h; for IL-10/IFN-γ: apical exposure; for IL-6 / IFN-γ / IL-8 / IL-10 / IL-13 / TNF-α: T84/PBMC, mean ± SEM
Description: (§1) The T84 cells are grown in DMEM/F-12 (1:1) supplemented with GlutaMAX®, 10% fetal bovine serum and […] penicillin/streptomycin. (T84 cells (human colorectal carcinoma cell line, ATCC® CCL-248™, Manassas, Va., USA). T84 cells were seeded in 12-well transwell insert filters (Coming Inc., NY, USA) and cultured in T84 cell medium for 3-4 weeks till co-culture with PBMC. Transepithelial electrical resistance (TER) was measured during culture, which generally increases to >1500 Ω×cm^2 and becomes stable after 3-4 weeks of culture. When TER was ≥2000 Ω×cm^2, T84 monolayers 14 were co-cultured with 1.5×10^6 PBMC 16 in the basolateral chamber.
(§2) The PBMC 16 for use in the co-cultures are isolated from 20 mL fresh blood from healthy controls (n=6) and subjects with food allergy (n=8) (Table 1). The average age of healthy controls was 36 (range 24-54) vs. 51 (range 26-74) for food allergic subjects (P>0.05). PBMC were isolated by density gradient centrifugation using lymphocyte separation medium according to manufacturer's protocol (Cellgro, Mediatec, Inc., Manassas, Va., USA). PBMC were collected in RPMI1640 supplemented with L-glutamine (Gibco), 2.5% fetal bovine serum, 1% penicillin/streptomycin and 1% sodium pyruvate (Sigma, St. Louis, Mo., USA) (PBMC medium) at 1×10^6 cell/mL.
(§3) T84/PBMC co-cultures were maintained in PBMC medium. PBMC were stimulated using CD3 and CD28 antibodies (clone OKT3 and CD28.2, 0.2 μg/mL; eBioscience, San Diego, Calif., USA) and simultaneously IEC were stimulated apically with Pam3CSK4, LPS or type C CpG oligonucleotide M362 (Invivogen, San Diego, Calif., USA) as previously described. Cultures were maintained at 37° C./5% CO2 for indicated time points.
(§4) Cytokine levels were measured by ELISA. IL-6, IL-8, IL-10, IL-13, IFN-γ and TNF-α were measured using the Ready-Set-Go!® ELISA kit from eBioscience according to manufacturer's protocol (eBioscience, Inc., San Diego, Calif., USA).
(§5) To evaluate whether epithelial TLR ligation modulates cytokine production by the PBMC, basolateral supernatants were collected 24 h after co-culture. Exposure of CD3/28-activated PBMC in the absence of IEC to TLR ligands served as a control to evaluate the contribution of IEC in modulating the cytokine production by PBMC. First we evaluated the production of IFN-γ and IL-13 as a reflection of a Th1 and Th2 type effector response (Table 3). No significant changes in the production of IFN-γ or IL-13 were observed, though IFN-γ production by the PBMC from food allergic subjects tended to be lower in T84/PBMC co-cultures (P=0.093). […] This was not observed when PBMC were stimulated with CpG DNA in absence of T84 cells (FIG. 7B).

[1] = system: T84 monolayers co-cultured with CD3/28-activated PBMC; assay: T84/PBMC co-culture, barrier integrity by transepithelial electrical resistance (TER); settings: for TER of T84 monolayers: apical exposure, 24 h and 48 h, vs medium control; for PBMC-induced disruption of intestinal epithelial barrier integrity (injurious effects of activated PBMC): PBMC from food allergy patients, agonist on apical side of T84 cells, FIG. 3
Description: as §1, §2, §3
(§6) The barrier integrity of T84 monolayers was assessed by measuring the TER and paracellular permeability to 4 kDa FITC-dextran. In short, TER was measured using a dual electrode system designed for cell culture insert analysis (EVOM; World Precision Instruments, Sarasota, Fla.) prior to co-culture and at indicated time points during co-culture. Data is reported as percentage of the initial TER value measured before co-culture. For assessment of permeability, T84 monolayers were separated from PBMC and cultured in PBMC medium for 1 h. The monolayers were then apically exposed to 1 mg/mL 4 kDa FITC-dextran (Sigma) and basolateral supernatants were collected after 60 min. FITC-dextran was measured at excitation wavelength 485 nm and emission wavelength 520 nm. The 4 kDa FITC-dextran flux was expressed as pmol/(h×cm^2).
In some experiments, PBMC are stimulated using antibodies against CD3 and CD28 and T84 cell monolayers were simultaneously exposed to synthetic TLR ligands or fermentation product 12 (co-culture of stool samples without or with different prebiotics). SCFA content (acetate, propionate and butyrate) in the fermentation products (“Fermenta”) 12 was analyzed by HPLC. TER was measured at t=0 h, t=4 h, t=18 h and t=24 h to monitor changes in the barrier integrity of the T84 monolayers. Non-limiting example of prebiotics include commercially available inulin and fructose oligosaccharides (FOS) that promote production of Butyrate by intestinal bacteria, galactose oligosaccharides (GOS) that promote growth of bifidobacteria in the intestine or prebiotics like resistant starch, corn arbionoxylan that promotes propionate. Other prebiotics may also be used.

[2] = system: T84 monolayers co-cultured with CD3/28-activated PBMC; assay: T84/PBMC co-culture, paracellular permeability to 4 kDa FITC-dextran; settings: 48 h co-culture, vs medium control
Description: as §1, §2
T84/PBMC co-cultures were maintained in PBMC medium. […]
as §6, with “For assessment of permeability, T84 monolayers were separated from PBMC and cultured in PBMC medium for 1 h. The monolayers were then apically exposed to 1 mg/mL 4 kDa FITC-dextran (Sigma) and basolateral supernatants were collected after 60 min.” left out

PBMC = assay: Cytokine production by CD3/28-activated PBMC in absence of T84 cells (ELISA); settings: for IFN-γ / IL-6 / IL-8 / IL-10 / IL-13 / TNF-α / IFN-γ/IL-13 ratio: PBMC in absence of T84 cells, 24 h; for IFN-γ / IL-6 / IL-8 / IL-10 / IL-13 / TNF-α: mean ± SEM; for IL-10/IL-13 ratio: absence of T84 cells
Description: as §2, §3, §4, §5

[3] = PBMC from food allergic subjects

type C CpG oligonucleotide M362 [CpG DNA]
production of IL-6, IL-8 and TNF-α by PBMC (T84/PBMC co-cultures; T84/PBMC co-culture, PBMC from both healthy controls and food allergic subjects, in words): suppressed | IL-10/IL-13 ratio (T84/PBMC co-cultures; PBMC from food allergic patients): significantly increased | IFN-γ/IL-13 ratio (T84/PBMC co-cultures; food allergic subjects): enhanced; also recorded: increased | IL-10/IFN-γ (T84/PBMC co-cultures; food allergic subjects): 0.19±0.06 | IFN-γ/IL-13 ratio (T84/PBMC co-cultures; healthy controls): enhanced; also recorded: increased | IL-10/IFN-γ (T84/PBMC co-cultures; healthy controls): 0.12±0.06 | IL-10/IL-13 ratio (T84/PBMC co-cultures; healthy donor PBMC): tended to increase | IL-6 (T84/PBMC co-cultures; FA (food allergy) PBMC): 6400 ± 1671 pg/mL | IFN-γ (T84/PBMC co-cultures; FA PBMC): 7040 ± 2454 pg/mL | IL-8 (T84/PBMC co-cultures; FA PBMC): 15733 ± 4509 pg/mL | IL-10 (T84/PBMC co-cultures; FA PBMC): 834 ± 233.6 pg/mL | IL-13 (T84/PBMC co-cultures; FA PBMC): 35.9 ± 10.5 pg/mL | TNF-α (T84/PBMC co-cultures; FA PBMC): 2092 ± 493 pg/mL | IL-6 (T84/PBMC co-cultures; HC (healthy control) PBMC): 7291 ± 1376 pg/mL | IFN-γ (T84/PBMC co-cultures; HC PBMC): 10731 ± 3289 pg/mL | IL-8 (T84/PBMC co-cultures; HC PBMC): 20758 ± 5247 pg/mL | IL-10 (T84/PBMC co-cultures; HC PBMC): 652.8 ± 105.5 pg/mL | IL-13 (T84/PBMC co-cultures; HC PBMC): 27.5 ± 7.5 pg/mL | TNF-α (T84/PBMC co-cultures; HC PBMC): 2531 ± 552 pg/mL | Th1/Th2 balance of the effector immune response (T84/PBMC co-cultures; apical exposure of T84 monolayers, FIG. 4, listed as TLR9 agonist): shifts the balance of the effector immune response away from the allergy-associated Th2 response; also recorded: reversed the Th1/Th2 balance away from the allergic TH2 phenotype | TER of T84 monolayers [1, 3]: prevented PBMC-induced barrier disruption; also recorded: increased | PBMC-induced disruption of intestinal epithelial barrier integrity (injurious effects of activated PBMC) ([1]; listed as TLR9 agonist): prevented | PBMC-induced disruption of intestinal epithelial barrier integrity (injurious effects of activated PBMC) ([1]; listed as TLR-9 agonist): significantly blunted | TER of T84 monolayers ([1]; PBMC from healthy controls): prevented PBMC-induced barrier disruption; also recorded: increased | permeability of T84 monolayers to 4 kDa FITC-dextran [2, 3]: reduced epithelial permeability | IFN-γ (PBMC; FA): 3945 ± 1543 pg/mL | IL-6 (PBMC; FA): 5940 ± 2450 pg/mL | IL-8 (PBMC; FA): 25420 ± 6779 pg/mL | IL-10 (PBMC; FA): 477.3 ± 157.7 pg/mL | IL-13 (PBMC; FA): 39.9 ± 12.8 pg/mL | TNF-α (PBMC; FA): 1199 ± 437 pg/mL | IFN-γ (PBMC; HC): 2394 ± 966 pg/mL | IL-6 (PBMC; HC): 2564 ± 824 pg/mL | IL-8 (PBMC; HC): 19912 ± 2430 pg/mL | IL-10 (PBMC; HC): 391.9 ± 149.3 pg/mL | IL-13 (PBMC; HC): 19.5 ± 3.8 pg/mL | TNF-α (PBMC; HC): 1024 ± 213 pg/mL | IFN-γ/IL-13 ratio (PBMC; food allergic subjects): not observed | IFN-γ/IL-13 ratio (PBMC; healthy controls): not observed | IL-10/IL-13 ratio (PBMC; [3]): did not affect | IL-10/IL-13 ratio (PBMC; PBMC from healthy controls): enhanced | production of IL-6, IL8 and TNF-α (PBMC; direct stimulation of PBMC from food allergic subjects, in words): did not suppress | pro-inflammatory cytokine production (PBMC; direct stimulation of PBMC from healthy controls, in words): reduced

LPS
IL-6 (T84/PBMC co-cultures; FA (food allergy) PBMC): 7410 ± 2112 pg/mL | IFN-γ (T84/PBMC co-cultures; FA PBMC): 4390 ± 1700 pg/mL | IL-8 (T84/PBMC co-cultures; FA PBMC): 17103 ± 4334 pg/mL | IL-10 (T84/PBMC co-cultures; FA PBMC): 777.6 ± 163.2 pg/mL | IL-13 (T84/PBMC co-cultures; FA PBMC): 33.8 ± 11.0 pg/mL | TNF-α (T84/PBMC co-cultures; FA PBMC): 2403 ± 516 pg/mL | IL-6 (T84/PBMC co-cultures; HC (healthy control) PBMC): 9040 ± 2424 pg/mL | IFN-γ (T84/PBMC co-cultures; HC PBMC): 10392 ± 2967 pg/mL | IL-8 (T84/PBMC co-cultures; HC PBMC): 23124 ± 5683 pg/mL | IL-10 (T84/PBMC co-cultures; HC PBMC): 632.7 ± 125.1 pg/mL | IL-13 (T84/PBMC co-cultures; HC PBMC): 31.3 ± 9.1 pg/mL | TNF-α (T84/PBMC co-cultures; HC PBMC): 2928 ± 712 pg/mL | TER of T84 monolayers [1, 3]: did not affect | TER of T84 monolayers ([1]; PBMC from healthy controls): did not affect | permeability of T84 monolayers to 4 kDa FITC-dextran ([2]; PBMC from healthy controls): increased the permeability | IFN-γ (PBMC; FA): 2188 ± 908 pg/mL | IL-6 (PBMC; FA): 9909 ± 2073 pg/mL | IL-8 (PBMC; FA): 35682 ± 4770 pg/mL | IL-10 (PBMC; FA): 586 ± 159.4 pg/mL | IL-13 (PBMC; FA): 34.0 ± 10.7 pg/mL | TNF-α (PBMC; FA): 945.4 ± 294 pg/mL | IFN-γ (PBMC; HC): 6070 ± 2282 pg/mL | IL-6 (PBMC; HC): 12399 ± 2174 pg/mL | IL-8 (PBMC; HC): 43034 ± 2960 pg/mL | IL-10 (PBMC; HC): 545.4 ± 134.7 pg/mL | IL-13 (PBMC; HC): 28.3 ± 8.7 pg/mL | TNF-α (PBMC; HC): 2607 ± 1165 pg/mL | IL-10/IL-13 ratio (PBMC; [3]): increased | IL-10/IL-13 ratio (PBMC; PBMC from healthy controls): enhanced
